Where two headings read alike, the source gives them in different places.
Legend:
[1] = target: T1, menin protein (Homo sapiens (Human), UniProt O00255); assay: Fluorescence polarization (FP) competitive binding assay, menin binding affinity; settings: menin protein 4 nM, probe 2 nM, room temperature 30 minutes
Procedure: A fluorescence polarization (FP) competitive binding assay was used to determine the binding affinities of representative menin inhibitors. A FAM labeled fluorescent probe was designed and synthesized based on a MLL1 peptide (FAM-MM2). Equilibrium dissociation constant (Kd) value of FAM-MM2 to menin protein was determined from protein saturation experiments by monitoring the total fluorescence polarization of mixtures composed with the fluorescent probe at a fixed concentration and the protein with increasing concentrations up to full saturation. Serial dilutions of the protein were mixed with FAM-MM2 to a final volume of 200 μl in the assay buffer (PBS with 0.02% Bovine γ-Globulin and 4% DMSO. 0.01% Triton X-100 was added right before assays). Final FAM-MM2 concentration was 2 nM. Plates were incubated at room temperature for 30 minutes with gentle shaking to assure equilibrium. FP values in millipolarization units (mP) were measured using the Infinite M-1000 plate reader (Tecan U.S., Research Triangle Park, N.C.) in Microfluor 1 96-well, black, v-bottom plates (Thermo Scientific, Waltham, Mass.) at an excitation wavelength of 485 nm and an emission wavelength of 530 nm.
The IC50, see Table 3, of representative Compounds of the Disclosure were determined in a competitive binding experiment. Mixtures of 5 μl of the tested compounds in DMSO and 195 μl of preincubated protein/probe complex solution in the assay buffer were added into assay plates which were incubated at room temperature for 30 minutes with gentle shaking. Final concentration of the menin protein was 4 nM, and final probe concentration is 2 nM. Negative controls containing protein/probe complex only (equivalent to 0% inhibition), and positive controls containing only free probes (equivalent to 100% inhibition), were included in each assay plate. FP values were measured as described above. IC50 values were determined by nonlinear regression fitting of the competition curves.

[2] = test system: MV4-11; assay: 7-day proliferation assay (WST-8), MV4-11; format: cell-based; settings: Homo sapiens, 168 h, 7 days, read-out: IC50 in cell growth inhibition
Procedure: (§1) The effect of representative Compounds of the Disclosure on cell viability was determined in a 7-day proliferation assay. Cells were maintained in the appropriate culture medium with 10% FBS at 37° C. and an atmosphere of 5% CO2.
(§2) Cells were seeded in 96-well flat bottom (Corning COSTAR, Corning, N.Y., cat #3595) at a density of 2,000-3,000 cells/well in 100 μl of culture medium. Compounds were serially diluted in the appropriate medium, and 100 μl of the diluted compounds were added to the appropriate wells of the cell plate. After the addition of compounds, the cells were incubated at 37° C. in an atmosphere of 5% CO2 for 7 days. Cell viability was determined using the WST (2-(2-methoxy-4-nitrophenyl)-3-(4-nitrophenyl)-5-(2,4-disulfophenyl)-2H-tetrazolium, monosodium salt) Cell Counting-8 Kit (Dojindo Molecular Technologies, Inc., Rockville, Md.) according to the manufacturers' instructions.
(§3) WST-8 reagent was added to each well at a final concentration of 10% (v/v), and then the plates were incubated at 37° C. for 1-2 hours for color development. The absorbance was measured at 450 nm using a SPECTRAmax PLUS plate reader (Molecular Devices, Sunnyvale, Calif.). The readings were normalized to the DMSO-treated cells and the half maximal inhibitory concentration (IC50) was calculated by nonlinear regression (four parameters sigmoid fitted with variable slope, least squares fit, and no constraint) analysis using the GraphPad Prism 5 software (GraphPad Software, La Jolla, Calif.).

[3] = test system: MOLM13; assay: 7-day proliferation assay (WST-8), MOLM13; format: cell-based; settings: Homo sapiens, MOLM-13, 168 h, 7 days, read-out: IC50 in cell growth inhibition
Procedure: as §1, §2, §3

[4] = test system: MOLM14; assay: 7-day proliferation assay (WST-8), MOLM14; format: cell-based; settings: Homo sapiens, MOLM-14, 168 h; Table 4; MOLM14, AML, MLL/AF9; 7 days; read-out: IC50 in cell growth inhibition
Procedure: as §1, §2, §3

[5] = test system: SEM cells; assay: 7-day proliferation assay (WST-8), SEM; format: cell-based; settings: MLL-AF9, 168 h; Table 4; 7 days; read-out: IC50 in cell growth inhibition
Procedure: as §1, §2, §3

[6] = test system: MonoMac6; assay: 7-day proliferation assay (WST-8), MonoMac6; format: cell-based; settings: Homo sapiens, MONO-MAC-6, 168 h; Table 4; MonoMac6, AML, MLL/AF9; 7 days; read-out: IC50 in cell growth inhibition
Procedure: as §1, §2, §3

[7] = test system: RS4-11; assay: 7-day proliferation assay (WST-8), RS4-11; format: cell-based; settings: Homo sapiens, 168 h; Table 4; RS4-11, B-lineage ALL, MLL/AF4; 7 days; read-out: IC50 in cell growth inhibition
Procedure: as §1, §2, §3

[8] = target: T1, menin protein; assay: Covalent binding to menin protein by mass spectroscopy; settings: incubated with recombinant human menin, compared to menin apo
Procedure: No. 1 and Cpd. […] Recombinant human menin protein was incubated with Cpd. No. 1 or Cpd. No. 3 and compared to menin protein alone (Menin apo).

T1 sequence (O00255 whole entry): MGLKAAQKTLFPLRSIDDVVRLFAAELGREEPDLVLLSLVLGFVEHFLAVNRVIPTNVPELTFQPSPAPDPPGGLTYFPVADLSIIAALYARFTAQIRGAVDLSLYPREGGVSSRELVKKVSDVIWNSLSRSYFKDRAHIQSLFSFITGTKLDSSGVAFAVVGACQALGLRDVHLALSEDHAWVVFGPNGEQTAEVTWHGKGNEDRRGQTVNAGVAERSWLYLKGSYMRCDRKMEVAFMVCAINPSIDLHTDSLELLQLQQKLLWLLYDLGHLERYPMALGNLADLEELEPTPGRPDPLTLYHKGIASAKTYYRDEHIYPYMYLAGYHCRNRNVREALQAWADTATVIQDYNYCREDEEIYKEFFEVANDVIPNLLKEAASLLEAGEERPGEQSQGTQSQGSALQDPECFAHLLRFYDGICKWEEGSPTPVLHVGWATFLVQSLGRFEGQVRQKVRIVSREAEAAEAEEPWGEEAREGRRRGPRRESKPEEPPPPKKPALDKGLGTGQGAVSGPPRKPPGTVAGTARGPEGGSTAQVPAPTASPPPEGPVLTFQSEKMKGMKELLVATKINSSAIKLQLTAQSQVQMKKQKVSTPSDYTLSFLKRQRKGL

IC50 [1] | IC50 ([2]; Table 4, MV4-11, AML, MLL/AF4) | IC50 ([3]; Table 4, MOLM13, AML, MLL/AF9) | IC50 [4] | IC50 [7] | Covalent binding with menin protein (mass spectroscopy) [8] | IC50 ([2]; Table 5, MV4-11) | IC50 ([3]; Table 5, MOLM13) | Compound | IC50 [5] | IC50 [6]
3 nM | 44.8 nM | 154 nM | 180 nM | 62.1 nM | – | – | – | C=CC(=O)N1CC(S(=O)(=O)c2ccc(N3CC(CN4CCC([C@@](C#N)(c5cccc(F)c5)[C@H]5CCC[C@@H]5NC(=O)OC)CC4)C3)cc2)C1 [Cpd. No. 6, methyl ((1S,2R)-2-((S)-(1-((1-(4-((1-acryloylazetidin-3-yl)sulfonyl)phenyl)azetidin-3-yl)methyl)piperidin-4-yl)(cyano)(3-fluorophenyl)methyl)cyclopentyl)carbamate] | 79 nM | 764 nM
5 nM | 4.3 nM | 27.2 nM | 41 nM | 8.8 nM | covalently bind with menin protein | – | – | C=CC(=O)N1CC(S(=O)(=O)c2ccc(N3CC(CN4CCC([C@@](C#N)(c5cccc(F)c5)[C@H]5CCC[C@@H]5OC(=O)NC)CC4)C3)cc2)C1 [Cpd. No. 1, (1S,2R)-2-((S)-(1-((1-(4-((1-acryloylazetidin-3-yl)sulfonyl)phenyl)azetidin-3-yl)methyl)piperidin-4-yl)(cyano)(3-fluorophenyl)methyl)cyclopentyl methylcarbamate] | 10.9 nM | 84 nM
2 nM | 8.3 nM | 41.4 nM | 78.8 nM | 10.7 nM | – | – | – | C=CC(=O)Nc1cccc(S(=O)(=O)c2ccc(N3CC(CN4CCC([C@@](C#N)(c5cccc(F)c5)[C@H]5CCC[C@@H]5NC(=O)OC)CC4)C3)cc2)c1 [Cpd. No. 5, methyl ((1S,2R)-2-((S)-(1-((1-(4-((3-acrylamidophenyl)sulfonyl)phenyl)azetidin-3-yl)methyl)piperidin-4-yl)(cyano)(3-fluorophenyl)methyl)cyclopentyl)carbamate] | 39.6 nM | 156 nM
2 nM | – | – | – | – | – | 0.1 nM | 6 nM | CCc1nccn1C[C@@](c1cccc(F)c1)(C1CCN(CC2CN(c3ccc(S(=O)(=O)C4CN(C(=O)/C=C/CN5CCCCC5)C4)cc3)C2)CC1)[C@H]1CCC[C@@H]1NC(=O)OC [Cpd. No. 73, methyl ((1S,2R)-2-((S)-2-(2-ethyl-1H-imidazol-1-yl)-1-(3-fluorophenyl)-1-(1-((1-(4-((1-((E)-4-(piperidin-1-yl)but-2-enoyl)azetidin-3-yl)sulfonyl)phenyl)azetidin-3-yl)methyl)piperidin-4-yl)ethyl)cyclopentyl)carbamate] | – | –
3 nM | – | – | – | – | covalently bind with menin protein | – | – | C=CC(=O)Nc1cccc(S(=O)(=O)c2ccc(N3CC(CN4CCC([C@@](C#N)(c5cccc(F)c5)[C@H]5CCC[C@@H]5OC(=O)NC)CC4)C3)cc2)c1 [Cpd. No. 3, (1S,2R)-2-((S)-(1-((1-(4-((3-acrylamidophenyl)sulfonyl)phenyl)azetidin-3-yl)methyl)piperidin-4-yl)(cyano)(3-fluorophenyl)methyl)cyclopentyl methylcarbamate] | – | –
> 2000 nM | – | – | – | – | – | 525 nM | 1400 nM | COC(=O)N[C@H]1CCC[C@@H]1[C@@](C#N)(c1cccc(F)c1)C1CCN(CC2CN(c3ccc(S(=O)(=O)C4CN(C(=O)/C=C/CN(C)C)C4)cc3)C2)CC1 [Cpd. No. 60, methyl ((1S,2R)-2-((R)-cyano(1-((1-(4-((1-((E)-4-(dimethylamino)but-2-enoyl)azetidin-3-yl)sulfonyl)phenyl)azetidin-3-yl)methyl)piperidin-4-yl)(3-fluorophenyl)methyl)cyclopentyl)carbamate] | – | –
3 nM | 2.2 nM | 16.9 nM | 17.6 nM | 5.9 nM | – | – | – | C=CC(=O)Nc1cccc(S(=O)(=O)c2ccc(N3CC(CN4CCC([C@@](Cn5ccnc5CC)(c5cccc(F)c5)[C@H]5CCC[C@@H]5NC(=O)OC)CC4)C3)cc2)c1 [Cpd. No. 7, methyl ((1S,2R)-2-((S)-1-(1-((1-(4-((3-acrylamidophenyl)sulfonyl)phenyl)azetidin-3-yl)methyl)piperidin-4-yl)-2-(2-ethyl-1H-imidazol-1-yl)-1-(3-fluorophenyl)ethyl)cyclopentyl)carbamate] | 4.7 nM | 67.7 nM
